Tests used:
recombinant human HDAC6 = recombinant human HDAC6 (Homo sapiens (Human), UniProt Q9UBN7); assay: Enzymatic screening, HDAC6 inhibition (fluorogenic FdL_G substrate); format: biochemical
Procedure: (§1) For each test compound, 100× concentrated DMSO solutions at 8 doses were prepared and then diluted in assay buffer (25 mM Tris-HCl, pH 8, 130 mM NaCl, 0.05% Tween-20, 10% Glycerol) to obtain 5× concentrated solutions in relation to the final concentrations (typical final concentration range—6.4-200000 nM or 0.18-50000 nM, final DMSO content—1%). Then 10 μL solution of each test compound concentration were placed on a 96-well plate in triplicate and 15 μL of 3.33× concentrated enzyme solution in the assay buffer containing 3.33× concentrated BSA (final BSA concentration—2 mg/mL for HDAC4, HDAC5 and HDAC9 or 1 mg/mL for other isoforms) and in the case of HDAC6-3.33× concentrated TCEP (final TCEP concentration—200 μM) were added to each well. After a period of preincubation (incubation times and temperatures vary for different isoforms and are shown in table 1) 25 μL of solution containing the substrate were added. As substrate, FLUOR DE LYS® deacetylase substrate (Enzo Life Sciences, cat: BML-KI104, FdL), FLUOR DE LYS®-Green substrate (Enzo Life Sciences, cat: BML-KI572, FdL_G) or Boc-Lys(Tfa)-AMC (Bachem, cat: 4060676.005, Tfal)—2× concentrated solution in assay buffer were used. Following a reaction period (reaction times and temperatures vary for different isoforms and are reported in Table 1), 50 μL of the development solution consisting of concentrate FLUOR DE LYS® developer I (Enzo Life Sciences, ca: BML-KI105), diluted 200 times in buffer (50 mM Tris-HCl, pH 8, 137 mM NaCl, 2.7 mM KCl, 1 mM MgCl2) plus 2 μM TSA was added and, after 25 minutes at room temperature in the dark, using the Victor 1420 Multilabel Counter Perkin Elmer Wallac instrument, the fluorescence reading was carried out.

recombinant human HDAC1 = recombinant human HDAC1 (Homo sapiens (Human), UniProt Q13547); assay: Enzymatic screening, HDAC1 inhibition (fluorogenic FdL_G substrate); format: biochemical
Procedure: as §1

recombinant human HDAC6, sequence (Q9UBN7 whole entry, canonical isoform): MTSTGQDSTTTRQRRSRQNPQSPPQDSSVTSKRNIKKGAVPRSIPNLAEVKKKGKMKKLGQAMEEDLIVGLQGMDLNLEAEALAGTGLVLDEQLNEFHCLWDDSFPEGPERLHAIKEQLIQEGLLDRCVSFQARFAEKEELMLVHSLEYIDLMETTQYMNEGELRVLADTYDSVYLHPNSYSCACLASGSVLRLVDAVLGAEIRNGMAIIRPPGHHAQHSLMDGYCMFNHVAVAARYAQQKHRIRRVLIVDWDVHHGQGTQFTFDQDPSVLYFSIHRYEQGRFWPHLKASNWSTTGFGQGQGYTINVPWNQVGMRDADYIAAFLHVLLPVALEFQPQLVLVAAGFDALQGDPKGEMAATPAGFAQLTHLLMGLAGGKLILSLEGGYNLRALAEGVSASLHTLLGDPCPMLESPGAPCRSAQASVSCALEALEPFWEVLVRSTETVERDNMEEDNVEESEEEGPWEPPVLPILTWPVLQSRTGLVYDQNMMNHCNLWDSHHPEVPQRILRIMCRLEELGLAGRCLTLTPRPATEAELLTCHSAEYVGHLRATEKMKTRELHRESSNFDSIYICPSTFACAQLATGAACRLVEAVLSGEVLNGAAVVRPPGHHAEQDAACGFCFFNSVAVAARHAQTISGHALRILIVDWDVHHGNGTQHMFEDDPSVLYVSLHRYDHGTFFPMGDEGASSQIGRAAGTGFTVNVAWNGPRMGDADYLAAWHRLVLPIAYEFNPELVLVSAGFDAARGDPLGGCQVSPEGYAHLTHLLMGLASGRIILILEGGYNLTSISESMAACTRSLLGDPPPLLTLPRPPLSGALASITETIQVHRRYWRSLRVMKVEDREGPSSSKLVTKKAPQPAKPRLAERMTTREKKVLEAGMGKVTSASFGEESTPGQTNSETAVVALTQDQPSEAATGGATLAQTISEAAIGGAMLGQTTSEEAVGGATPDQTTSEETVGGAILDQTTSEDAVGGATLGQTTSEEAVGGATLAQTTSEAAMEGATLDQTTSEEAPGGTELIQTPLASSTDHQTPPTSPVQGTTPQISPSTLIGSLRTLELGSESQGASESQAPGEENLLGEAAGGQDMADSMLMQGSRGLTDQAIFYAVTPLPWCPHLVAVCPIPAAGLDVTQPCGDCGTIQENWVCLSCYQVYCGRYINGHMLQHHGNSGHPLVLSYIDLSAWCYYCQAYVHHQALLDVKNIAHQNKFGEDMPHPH
recombinant human HDAC1, sequence (Q13547 whole entry): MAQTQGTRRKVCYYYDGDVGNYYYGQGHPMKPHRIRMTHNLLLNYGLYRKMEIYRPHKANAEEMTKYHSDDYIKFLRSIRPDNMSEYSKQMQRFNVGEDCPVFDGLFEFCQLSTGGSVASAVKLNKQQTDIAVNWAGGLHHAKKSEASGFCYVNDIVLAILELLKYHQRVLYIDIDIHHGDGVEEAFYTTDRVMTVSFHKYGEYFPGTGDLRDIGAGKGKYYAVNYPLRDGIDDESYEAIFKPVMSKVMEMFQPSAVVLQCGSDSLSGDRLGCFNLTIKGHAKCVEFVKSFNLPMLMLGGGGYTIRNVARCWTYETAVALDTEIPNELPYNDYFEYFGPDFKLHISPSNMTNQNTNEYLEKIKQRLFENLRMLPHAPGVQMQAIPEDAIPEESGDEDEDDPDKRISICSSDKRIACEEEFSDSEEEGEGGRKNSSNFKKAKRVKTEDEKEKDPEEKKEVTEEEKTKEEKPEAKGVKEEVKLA

| IC50 (recombinant human HDAC6) [nM] | IC50 (recombinant human HDAC1) [nM] | Compound |
| --- | --- | --- |
| 64 | > 200000 | Nc1ccc(-c2cn(C(CN3CCCC3)c3ccc(-c4nnc(C(F)F)o4)cn3)nn2)cn1 (stereo not shown) [Compd. 301, 5-(1-(1-(5-(5-(difluoromethyl)-1,3,4-oxadiazol-2-yl)pyridin-2-yl)-2-(pyrrolidin-1-yl)ethyl)-1H-1,2,3-triazol-4-yl)pyridin-2-amine] |
| 50 | > 200000 | FC(F)c1nnc(-c2ccc(Cn3nnc(-c4cccc(-c5cnc(N6CCOCC6)s5)c4)n3)nc2)o1 [compound 130, 4-(5-(3-(2-((5-(5-(difluoromethyl)-1,3,4-oxadiazol-2-yl)pyridin-2-yl)methyl)-2H-tetrazol-5-yl)phenyl)thiazol-2-yl)morpholine] |
| 45 | > 200000 | Nc1ccc(-c2cn(Cc3ccc(-c4nnc(C(F)F)o4)cc3)nn2)cc1 [compound 121, 4-(1-(4-(5-(difluoromethyl)-1,3,4-oxadiazol-2-yl)benzyl)-1H-1,2,3-triazol-4-yl)aniline] |
| 216 | > 200000 | Cc1nc(F)ccc1-c1cn(Cc2ccc(-c3nnc(C(F)F)o3)cc2)nn1 [compound 241, 2-(difluoromethyl)-5-(4-((4-(6-fluoro-2-methylpyridin-3-yl)-1H-1,2,3-triazol-1-yl)methyl)phenyl)-1,3,4-oxadiazole] |
| 74 | > 200000 | Nc1cc(-c2nnn(Cc3c(F)cc(-c4nnc(C(F)F)o4)cc3F)n2)ccc1OC(=O)N1CCOCC1 [compound 160, 2-amino-4-(2-(4-(5-(difluoromethyl)-1,3,4-oxadiazol-2-yl)-2,6-difluorobenzyl)-2H-tetrazol-5-yl)phenyl morpholine-4-carboxylate] |
| 49 | > 200000 | FC(F)c1nnc(-c2ccc(Cn3nnc(-c4ccc5ccncc5c4)n3)cc2)o1 [compound 127, 2-(difluoromethyl)-5-(4-((5-(isoquinolin-7-yl)-2H-tetrazol-2-yl)methyl)phenyl)-1,3,4-oxadiazole] |
| 17 | > 1e+06 | Nc1nc2cc(-c3cn(Cc4ccc(-c5nnc(C(F)F)o5)cn4)cn3)ccc2s1 [compound 322, 5-[1-[[5-[5-(difluoromethyl)-1,3,4-oxadiazol-2-yl]pyridin-2-yl]methyl]imidazol-4-yl]-1,3-benzothiazol-2-amine] |
| 668 | > 1e+06 | Nc1ccc(-n2cc(Cc3ccc(-c4nnc(C(F)F)o4)cc3)nn2)cc1 [compound 315, 4-[4-[[4-[5-(difluoromethyl)-1,3,4-oxadiazol-2-yl]phenyl]methyl]triazol-1-yl]aniline] |
| 43 | > 200000 | O=C1Nc2ccc(-c3cn(Cc4ccc(-c5nnc(C(F)F)o5)cc4)nn3)cc2NC12CCNCC2 [compound 271, 7′-(1-(4-(5-(difluoromethyl)-1,3,4-oxadiazol-2-yl)benzyl)-1H-1,2,3-triazol-4-yl)-1′,4′-dihydro-3′H-spiro[piperidine-4,2′-quinoxalin]-3′-one] |
| 9 | > 200000 | O=C1Nc2ccc(-c3nnn(Cc4ccc(-c5nnc(C(F)F)o5)cn4)n3)cc2NC12CCCC2 [compound 27, 7′-(2-((5-(5-(difluoromethyl)-1,3,4-oxadiazol-2-yl)pyridin-2-yl)methyl)-2H-tetrazol-5-yl)-1′,4′-dihydro-3′H-spiro[cyclopentane-1,2′-quinoxalin]-3′-one] |
| 86 | > 200000 | CC(C)(C)OC(=O)NCC(=O)Nc1cccc(-c2cn(Cc3c(F)cc(-c4nnc(C(F)F)o4)cc3F)nn2)c1 [Compd. 172, tert-butyl (2-((3-(1-(4-(5-(difluoromethyl)-1,3,4-oxadiazol-2-yl)-2,6-difluorobenzyl)-1H-1,2,3-triazol-4-yl)phenyl)amino)-2-oxoethyl)carbamate] |
| 92 | > 200000 | CCNc1cccc(-c2cn(Cc3ccc(-c4nnc(C(F)F)o4)cc3)nn2)c1 [compound 180, 3-(1-(4-(5-(difluoromethyl)-1,3,4-oxadiazol-2-yl)benzyl)-1H-1,2,3-triazol-4-yl)-N-ethylaniline] |
| 407 | > 200000 | CC(C)(C)OC(=O)N1CCc2[nH]c(-c3cccc(-c4nnn(Cc5ccc(-c6nnc(C(F)F)o6)cc5)n4)c3)nc2C1 [compound 272, tert-butyl 2-(3-(2-(4-(5-(difluoromethyl)-1,3,4-oxadiazol-2-yl)benzyl)-2H-tetrazol-5-yl)phenyl)-1,4,6,7-tetrahydro-5H-imidazo[4,5-c]pyridine-5-carboxylate] |
| 89 | > 200000 | Nc1ncnc2sc(-c3cn(Cc4ccc(-c5nnc(C(F)F)o5)cc4)nn3)cc12 [compound 178, 6-(1-(4-(5-(difluoromethyl)-1,3,4-oxadiazol-2-yl)benzyl)-1H-1,2,3-triazol-4-yl)thieno[2,3-d]pyrimidin-4-amine] |
| 67 | > 1e+06 | Nc1nc2cc(-c3cnn(Cc4ccc(-c5nnc(C(F)F)o5)cc4)c3)ccc2[nH]1 [compound 332, 5-[1-[[4-[5-(difluoromethyl)-1,3,4-oxadiazol-2-yl]phenyl]methyl]pyrazol-4-yl]-1H-benzimidazol-2-amine] |
| 161 | > 200000 | NC(=O)c1cccc(-c2cn(Cc3ccc(-c4nnc(C(F)F)o4)cc3)cn2)c1 [compound 223, 3-(1-(4-(5-(difluoromethyl)-1,3,4-oxadiazol-2-yl)benzyl)-1H-imidazol-4-yl)benzamide] |
| 34 | > 200000 | CN1CC(C(=O)Nc2cccc(-c3cn(Cc4c(F)cc(-c5nnc(C(F)F)o5)cc4F)nn3)c2)C1 [Compd. 86, N-(3-(1-(4-(5-(difluoromethyl)-1,3,4-oxadiazol-2-yl)-2,6-difluorobenzyl)-1H-1,2,3-triazol-4-yl)phenyl)-1-methylazetidine-3-carboxamide] |
| 122 | > 200000 | CCC[C@@H](c1ccc(-c2nnc(C(F)F)o2)cc1)n1cc(-c2cccc(NC(=O)N3CCOCC3)c2)nn1 (stereo in doubt) [compound 205, N-(3-(1-(1-(4-(5-(difluoromethyl)-1,3,4-oxadiazol-2-yl)phenyl)butyl)-1H-1,2,3-triazol-4-yl)phenyl)morpholine-4-carboxamide] |
| 192 | 1e+06 | CNc1ncc2cc(-c3cn(Cc4ccc(-c5nnc(C(F)F)o5)c(F)c4F)nn3)ccc2n1 [compound 389, 6-[1-({4-[5-(difluoromethyl)-1,3,4-oxadiazol-2-yl]-2,3-difluorophenyl}methyl)-1H-1,2,3-triazol-4-yl]-N-methylquinazolin-2-amine] |
| 23 | > 200000 | NC(=O)c1cccc(-c2nnn(Cc3c(F)cc(-c4nnc(C(F)F)o4)cc3F)n2)c1 [compound 54, 3-(2-(4-(5-(difluoromethyl)-1,3,4-oxadiazol-2-yl)-2,6-difluorobenzyl)-2H-tetrazol-5-yl)benzamide] |
| 200 | > 200000 | COc1ccccc1-c1cn(Cc2ccc(-c3nnc(C(F)F)o3)cc2)nn1 [compound 233, 2-(difluoromethyl)-5-(4-((4-(2-methoxyphenyl)-1H-1,2,3-triazol-1-yl)methyl)phenyl)-1,3,4-oxadiazole] |
| 19 | > 200000 | O=C1NCc2ccc(-c3nnn(Cc4ccc(-c5nnc(C(F)F)o5)cc4F)n3)cc21 [compound 40, 6-(2-(4-(5-(difluoromethyl)-1,3,4-oxadiazol-2-yl)-2-fluorobenzyl)-2H-tetrazol-5-yl)isoindolin-1-one] |
| 33 | > 200000 | FC(F)c1nnc(-c2ccc(Cn3cc(-c4cccs4)nn3)nc2)o1 [compound 85, 2-(difluoromethyl)-5-(6-((4-(thiophen-2-yl)-1H-1,2,3-triazol-1-yl)methyl)pyridin-3-yl)-1,3,4-oxadiazole] |
| 77 | > 200000 | CN(C)S(=O)(=O)c1ccc(F)c(-c2nnn(Cc3ccc(-c4nnc(C(F)F)o4)cc3)n2)c1 [compound 163, 3-(2-(4-(5-(difluoromethyl)-1,3,4-oxadiazol-2-yl)benzyl)-2H-tetrazol-5-yl)-4-fluoro-N,N-dimethylbenzenesulfonamide] |
| 64 | > 200000 | CN1CC(C(=O)Nc2cccc(-c3cn(Cc4ccc(-c5nnc(C(F)F)o5)cc4)nn3)c2)C1 [compound 149, N-(3-(1-(4-(5-(difluoromethyl)-1,3,4-oxadiazol-2-yl)benzyl)-1H-1,2,3-triazol-4-yl)phenyl)-1-methylazetidine-3-carboxamide] |
| 23 | > 1e+06 | Cn1c(N)nc2cc(-c3nnn(Cc4ncc(-c5nnc(C(F)F)o5)cc4F)n3)ccc21 [compound 370, 5-[2-[[5-[5-(difluoromethyl)-1,3,4-oxadiazol-2-yl]-3-fluoropyridin-2-yl]methyl]tetrazol-5-yl]-1-methylbenzimidazol-2-amine] |
